Two molecules from patent US20200087709A1, “DIRECT-TO-CONSUMER GENOMIC DIAGNOSTIC DEVICE” (MicroInvestigate, LLC, priority 2018, published 2020) can be followed below.

“Also recorded” adds a separate entry of the source.

Assay in all cases: Antibiotic testing by broth microdilution
What all share (format): cell-based

The subject of test [1] is Streptococcus pyogenes MGAS10394. Conditions: for resistance or susceptibility by broth dilution: S. pyogenes MGAS10394 (mef(A) positive); for MIC: Streptococcus pyogenes, MGAS10394, 20 h, S. pyogenes MGAS10394, known mef(A)+, BHI, 37° C., 20 hour incubation. On the procedure:
(§1) All bacteria were tested for their antimicrobial susceptibility by broth microdilution. Ampicillin (Cat #97061-442) was obtained from VWR (Amresco) and Erythromycin (Cat # TCE0751-5G) was obtained from VWR (TCI). Bacteria were maintained on blood agar plates at 37° C., and single colonies selected for inoculation into liquid overnight cultures in sterile Brain-Heart Infusion (BHI, VWR Cat #90003-038). For each culture, 5 mL of BHI media was inoculated in a sealed 15 ml falcon tube for overnight incubation at 37° C. (no shaking). Gentle inversion was used to mix the cultures prior to setting up the assay.
(§2) For the experiment, 5 μl of overnight culture was mixed with 5 mL of BMI media (1000× dilution) in a sterile tray and gently mixed. This dilute culture was added at […] per well of a 96-well plate pre-loaded with 20 μl of antibiotic solutions ranging, for erythromycin, from 0.5 to 32 μg/ml (10×) to produce the desired final concentrations of 0.05-3.2 μg/ml. For ampicillin, the stocks were 1.25 μg/ml-80 μg/ml resulting in final concentrations of 0.125 μg/ml-8 μg/ml. The 96-well plate was then transferred to a FilterMax F5 microplate reader for a 20 hour incubation at a temperature of 37° C., with readings taken every 30 minutes. A10-second orbital shaking was performed prior to each reading.

Test [2] deals with Streptococcus agalactiae SGBS025. The settings on record: for resistance or susceptibility by broth dilution: S. agalactiae (ermB positive and mef(A) negative); for MIC: Streptococcus agalactiae, SGBS025, 20 h, S. agalactiae SGBS025, known ermB+, mef(A)−, BHI, 37° C., 20 hour incubation. The protocol: as §1, §2
For test [3], the system named is Streptococcus salivarius patient isolate. The settings on record: for resistance or susceptibility by broth dilution: S. salivarius (mef(A) positive); for MIC: Streptococcus salivarius, 20 h, S. salivarius patient isolate, discovered mef(A)+, BHI, 37° C., 20 hour incubation. The protocol: as §1, §2
For orientation: In broth dilution the organism is exposed to a series of concentrations in liquid medium.

The subject of test [4] is Streptococcus pyogenes MGAS6180. Conditions: for resistance or susceptibility by broth dilution: S. pyogenes MGAS6180 (mef(A) negative); for MIC: Streptococcus pyogenes, S. pyogenes MGAS6180, known mef(A)−, BHI, 37° C., 20 hour incubation. The protocol: as §1, §2

A word on the MIC: it is the least concentration at which growth counts as inhibited. High values mean weaker potency, low ones greater potency. As for `CC1(C)S[C@@H]2[C@H](NC(=O)[C@H](N)c3ccccc3)C(=O)N2[C@H]1C(=O)O` [ampicillin, Ampicillin], the “resistance or susceptibility by broth dilution” value in test [1], in test [2], in test [3] and in test [4] was “susceptible” each time. For the same molecule, the MIC in test [1], in test [2], in test [3] and in test [4] was < 0.125 µg/mL throughout.
On to `CC[C@H]1OC(=O)[C@H](C)[C@@H](O[C@H]2C[C@@](C)(OC)[C@@H](O)[C@H](C)O2)[C@H](C)[C@@H](O[C@@H]2O[C@H](C)C[C@H](N(C)C)[C@H]2O)[C@](C)(O)C[C@@H](C)C(=O)[C@H](C)[C@@H](O)[C@]1(C)O` [erythromycin, Erythromycin], for which the “resistance or susceptibility by broth dilution” value in test [1] is on record as “resistant”; in test [2], “robust resistance; also recorded: resistant”; in test [3] it was “resistant”; in test [4], “susceptible”. In addition, the minimum inhibitory concentration (MIC) in test [1] is ≥ 3.2 µg/mL; in test [2], ≥ 3.2 µg/mL; in test [3] it was ≥ 3.2 µg/mL; in test [4], < 0.05 µg/mL.
